Data from US20030232986A1, “Inhibitors of caspases” (Vertex Pharmaceuticals Incorporated, priority 1998, published 2003).

Assays:
[1] = molecular target: T1, Caspase-1 (Homo sapiens, UniProt P29466); experiment: Caspase-1 enzyme inhibition (Ki); type: biochemical; conditions: substrate Suc-YVAD-pNA 80 μM, 37° C., pH 7.5
T1 sequence (P29466 120-297 limits assumed): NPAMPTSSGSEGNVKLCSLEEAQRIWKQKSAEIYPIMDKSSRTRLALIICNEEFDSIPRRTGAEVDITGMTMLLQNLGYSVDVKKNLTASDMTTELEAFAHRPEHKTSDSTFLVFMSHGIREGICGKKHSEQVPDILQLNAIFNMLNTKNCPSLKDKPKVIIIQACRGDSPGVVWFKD
T1 sequence (P29466 317-404 limits assumed): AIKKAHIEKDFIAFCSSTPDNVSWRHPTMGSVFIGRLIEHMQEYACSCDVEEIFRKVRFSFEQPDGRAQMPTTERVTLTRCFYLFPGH
In short: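 Ki obtained by fitting rate versus inhibitor concentration to the Morrison tight-binding equation for competitive inhibitors, with pNA release read at 405 nm at 37 °C. Substrate Suc-YVAD-pNA (80 μM final) added after 15 min enzyme–inhibitor preincubation in Tris pH 7.5 buffer with DTT and CHAPS.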

[2] = system: Human whole blood, IL-1β production; experiment: Whole blood assay for IL-1β production; type: cell-based; conditions: LPS-stimulated whole blood, IL-1β by ELISA
In short: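 LPS-stimulated (5.0 ng/ml final) human whole blood incubated with test compound in saline (or plasma/PBS-5% DMSO for hydrophobic compounds) at 30° C for 16-18 hr. Plasma IL-1β then measured by ELISA at 1:200 dilution, against no-LPS, no-inhibitor and vehicle controls.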

[3] = Single pass perfusion in rat: GI wall and liver metabolism, biliary excretion; type: in vitro ADME; conditions: for f (g) Xf (h): GI wall metabolism f(g) x liver metabolism f(h)
Description: Single pass perfusion studies in rat were performed to assess gastrointestinal (GI) wall metabolism (f(g)), liver metabolism (f(h)), and biliary excretion. The method used has been described in Pang, C. S., J. Pharmacol. Exp. Therapeutics, 333, pp. 788-798 (1984).

[4] = molecular target: T2, Caspase-3 (Homo sapiens, UniProt P42574); experiment: Caspase-3 enzyme inhibition (Ki); type: biochemical; conditions: substrate Ac-DEVD-pNA 60 μM, 8% glycerol in buffer, 37° C.
T2 sequence (P42574 29-175 limits assumed): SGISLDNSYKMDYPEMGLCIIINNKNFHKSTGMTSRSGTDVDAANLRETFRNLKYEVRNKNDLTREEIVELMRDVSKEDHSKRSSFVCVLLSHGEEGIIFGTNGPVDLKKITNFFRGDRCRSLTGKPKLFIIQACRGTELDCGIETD
T2 sequence (P42574 176-277 limits assumed): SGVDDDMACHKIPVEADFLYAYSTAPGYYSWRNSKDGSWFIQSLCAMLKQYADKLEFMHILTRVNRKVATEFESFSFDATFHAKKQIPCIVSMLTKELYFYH
Description: Ki values for test compounds with the various caspases were obtained by the method of Margolin et al. (J. Biol. Chem., 272 pp. 7223-7228 (1997)). Assays were performed in 10 mM Tris (Sigma Corp, St Louis Mo.) pH 7.5, 1 mM Dithiothreitol (DTT, Research Organic INC, Cleveland, Ohio) and 0.1% CHAPS (Pierce, Rockford Ill.) at 37° C. For caspase-3, a solution of 8% glycerol was added to the assay buffer to improve enzyme stability. A 65 μL aliquot of the assay buffer and 5 μL aliquot of the appropriate dilutions of inhibitor in DMSO where pipetted into a 96 well plate, treated with 10 μL of caspase, then diluted in assay buffer (0.5-40 nM active protein by active site titration). A control containing DMSO but no compound was included for each determination. The plates were then incubated for 15 minutes at 37° C., before addition of the appropriate substrate (20 μL, final concentration 1-4×KM, final assay volume 100 μL) to initiate the reaction. Reaction rates were measured at 37° C. either by following the time dependant increase in absorbance at 405 nm (for the pNA substrates) or in fluorescence (Ex 390, Em 460) (for the AMC substrates). The rates obtained were plotted against inhibitor concentration and the data fit to the Morrison tight-binding equation for competitive inhibitors (Morrison, J. F., Biochem. Biophys. Acta, 185 pp. 269-286 (1969)). The substrates used for the individual assays were as follows:
Caspase-3 Ac-DEVD-pNA (Bachem, King of Prussia, Pa.) (final concentration in assay, 60 μM)

[5] = system: Human Peripheral Blood Mononuclear Cells (PBMC), mature IL-1β; experiment: PBMC cell assay: IL-1β assay with human peripheral blood mononuclear cells; type: cell-based; conditions: LPS-stimulated human PBMC, mature IL-1β in supernatant by ELISA
In short: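 Donor PBMC (suspension at 6×10^6 cells/ml) or adherent-enriched monocytes were stimulated with 5 ng/ml LPS (final) alongside 5–6 compound dilutions bracketing the ICE Ki, at 0.1% DMSO final, for 16–18 hr at 37° C, 5% CO2. Mature IL-1β in supernatants was measured by ELISA; IC50 was calculated relative to LPS-only controls.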

SMILES | Ki [1] [nM] | IC50 [2] [nM] | Biliary Excretion [3] | f (g) Xf (h) [3] | Ki [4] [nM] | IC50 [5] [nM]
COc1ccc(C(=O)N[C@H](C(=O)N[C@@H](C)C(=O)N[C@H](C=O)CC(=O)O)C(C)C)cc1 [Example 29n] | 10 to 1000 | 2500 to 7500 | A (category “A” indicates <5%) | C (Category “C” indicates 0.5-0.75) | – | –
COc1c(C)cc(C(=O)N[C@@H](C)C(=O)N[C@@H](C)C(=O)N[C@H](C=O)CC(=O)O)cc1C [Example 29o] | 10 to 1000 | < 2500 | A (category “A” indicates <5%) | C (Category “C” indicates 0.5-0.75) | – | –
CC(=O)NC(CC(=O)O)C(=O)NC1CCN(C(CC(C)C)C(=O)NC(C=O)CC(=O)O)C1=O (centres unmarked) [Example 32d] | > 1000 | – | – | – | 10 to 1000 | –
COc1cc(NC(C)=O)c(Cl)cc1C(=O)N[C@@H](C)C(=O)N1CCC[C@H]1C(=O)N[C@H](C=O)CC(=O)O [Example 122r, 3-({1-[2-(4-Acetylamino-5-chloro-2-methoxy-benzoylamino)-propionyl]-pyrrolidine-2-carbonyl}-amino)-4-oxo-butyric acid] | 10 to 1000 | 2500 to 7500 | A (category “A” indicates <5%) | B (Category “B” indicates 0.25-0.49) | – | –

Continued, in another order:

Ki [1] [nM] | IC50 [2] [nM] | Biliary Excretion [3] | f (g) Xf (h) [3] | Ki [4] [nM] | SMILES | IC50 [5] [nM]
10 to 1000 | < 2500 | A (category “A” indicates <5%) | B (Category “B” indicates 0.25-0.49) | – | COc1cc(N)c(Cl)cc1C(=O)N[C@@H](C)C(=O)N1CC(F)(F)C[C@H]1C(=O)N[C@H](C=O)CC(=O)O [Example 27b] | –
< 10 | – | B (Category “B” indicates 5-10%) | A (category “A” indicates <0.25) | > 1000 | CC(C)[C@H](NC(=O)c1nccc2ccccc12)C(=O)N[C@@H](C)C(=O)N[C@H](C=O)CC(=O)O [Example 29b] | 1000 to 2000
< 10 | < 2500 | C (Category “C” indicates >10%) | B (Category “B” indicates 0.25-0.49) | – | COc1c(C)cc(C(=O)N[C@H](C(=O)N[C@@H](C)C(=O)N[C@H](C=O)CC(=O)O)C(C)C)cc1C [Example 29p] | –
< 10 | < 2500 | A (category “A” indicates <5%) | C (Category “C” indicates 0.5-0.75) | – | C[C@H](NC(=O)c1ccc(N)c(Cl)c1)C(=O)N[C@@H](C)C(=O)N[C@H](C=O)CC(=O)O [Example 29q] | –
< 10 | < 2500 | B (Category “B” indicates 5-10%) | C (Category “C” indicates 0.5-0.75) | – | CC(C)[C@H](NC(=O)c1ccc(N)c(Cl)c1)C(=O)N[C@@H](C)C(=O)N[C@H](C=O)CC(=O)O [Example 29r] | –
